On the set-up of data set [1]: method as in earlier work. Conditions: ref 24 (Tanaka et al., ACS Med. Chem. Lett. 2025); cited from earlier work.
On the set-up of data set [2]: method as in earlier work. Conditions: ref 24 (Tanaka et al., ACS Med. Chem. Lett. 2025); cited from earlier work. This is another data set of the same source.
In data set [3] the test system is MK-801 challenged mouse. Details: method as in earlier work. Conditions: IP, ref 24 (Tanaka et al., ACS Med. Chem. Lett. 2025); cited from earlier work.
On the set-up of data set [4]: method as in earlier work. Conditions: ref 24 (Tanaka et al., ACS Med. Chem. Lett. 2025); cited from earlier work. The source holds these as a separate data set.
Details of data set [5]: method as in earlier work. Conditions: ref 24 (Tanaka et al., ACS Med. Chem. Lett. 2025); cited from earlier work. The source holds these as a separate data set.
Data set [6] in a line: Plasma protein binding, human (equilibrium dialysis). It counts as in vitro ADME. Conditions: pH 7.4, read-out: PPB human (converted). How it is done: (§1) Plasma protein binding and Brain homogenate binding: Determination of fraction unbound (f u) in plasma was conducted in vitro via equilibrium dialysis using HTDialysis (HTD) membrane plates. The top half of the plate was filled with 100 uL of Dubelco’s Phosphate Buffered Saline, pH 7.4 (DPBS). Compounds were diluted into plasma from each species (5 µM final concentration), which was aliquoted in triplicate to the ‘bottom half’ of the prepared HTD plate wells. The HTD plate was sealed and incubated for 6 hours at 37 °C. Following incubation, each well (both top and bottom halves) were transferred (20 µL) to the corresponding wells of a 96-shallow-well (V-bottom) plate. The daughter plates were then matrix-matched (DPBS side wells received equal volume of plasma, and plasma side wells received equal volume of DPBS), and extraction solution (120 µL; acetonitrile containing 50 nM carbamazepine as IS) was added to all wells of both daughter plates to precipitate protein and extract test article. The plates were then sealed and centrifuged (3500 rcf) for 10 minutes at ambient temperature. Supernatant (60 µL) from each well of the daughter plates was then transferred to the corresponding wells of new daughter plates (96-shallow-well, V bottom) containing water (Milli-Q, 60 µL/well), and the plates were sealed in preparation for LC-MS/MS analysis (see LC-MS/MS analysis method below).
(§2) The unbound fraction (f u) was calculated following the equation below, and mean values for each species were calculated from 3 replicates. […]
(§3) Fraction unbound for both plasma and brain samples was determined using Equation 4.
(§4) Equation 4 Determination of fraction unbound in plasma. […]

Data set [7] is described as follows: Plasma protein binding, mouse. Type of data set: in vitro ADME. Conditions: mouse, plasma, pH 7.4, mouse plasma, bound; read-out: PPB mouse (converted). The procedure: as §1, §2, §3, §4
Data set [8] is described as follows: Liver microsome intrinsic clearance, human. Type of data set: in vitro ADME. Conditions: pH 7.4; human liver microsomes, predicted intrinsic clearance; read-out: LMS CLINT human. How it is done:
(§5) were incubated in 100 mM potassium phosphate pH 7.4 buffer with 3 mM MgCl2 at 37 °C with constant shaking. After a 5 min preincubation, the reaction was initiated by the addition of NADPH (1 mM). At selected time intervals (0, 3, 7, 15, 25, and 45 min), aliquots were taken and subsequently placed into a 96-well plate containing cold acetonitrile with internal standard (50 ng/mL carbamazepine). Plates were then centrifuged at 3000 rcf (4 °C) for 10 min, and the supernatant was transferred to a separate 96-well plate and diluted 1:1 with water for LC/MS/MS analysis. The in vitro half-life ( 1/2, min, Eq. 1), intrinsic clearance (CLint, mL/min/kg, Eq. 2), and subsequent predicted hepatic clearance (CLhep, mL/min/kg, Eq. 3) was determined employing the […]
(§6) where k represents the slope from linear regression analysis of the natural log percent remaining of a test compound as a function of incubation time […]
(§7) (2) CLint = in vitroT x mg microsomes x gram liver x kg body wt ascale-up factors: of 20 (human) or 45 (rat) […]
(§8) where Qh (hepatic blood flow, mL/min/kg) is 21 (human) or 70 (rat).
(§9) LC/MS/MS Bioanalysis of Samples from Plasma Protein Binding and Intrinsic Clearance […]
(§10) Samples were analyzed on a Thermo Electron TSQ Quantum Ultra triple quad mass spectrometer (San Jose, CA) via electrospray ionization (ESI) with two Themo Electron Accella pumps (San Jose, CA), and a Leap Technologies CTC PAL autosampler (Carrboro, NC). Analytes were […]

Data set [9] in a line: Liver microsome intrinsic clearance, rat. It counts as in vitro ADME. Conditions: pH 7.4; rat liver microsomes, predicted intrinsic clearance; read-out: LMS CLINT rat. The procedure: as §5, §6, §7, §8, §9, §10
A short description of data set [10]: Liver microsome intrinsic clearance, mouse. Type of data set: in vitro ADME. Conditions: mouse liver microsomes, predicted intrinsic clearance; read-out: LMS CLINT mouse.
Data set [11] can be described thus: Rat in vivo PK (plasma clearance) in SAR tables. Conditions: read-out: Rat CLp.
Data set [12] is described as follows: Plasma protein binding, rat. Type of data set: in vitro ADME. Conditions: rat, plasma, pH 7.4, rat plasma, bound; read-out: PPB rat (converted). How it is done: as §1, §2, §3, §4
The nature of data set [13]: Rat brain to plasma ratio (Kp, Kp,uu). Type of data set: in vivo. Conditions: male, Sprague Dawley, brain and plasma, intravenous, 0.2 mg/kg; rat brain:plasma. How it is done: Determination of brain to plasma ratio:
All animal study procedures were approved by the Institutional Animal Care and Use Committee and were conducted in accordance with the National Institutes of Health regulations of animal care covered in Principles of Laboratory Animal Care (National Institutes of Health). All rats were fasted overnight prior to testing.
For determination of the brain over plasma ratio (Kp), compounds were formulated in 8% ethanol, 32% PEG400 and 60% DMSO (v/v/v) and administered as a single 0.2 mg/kg IV dose (1 mL/kg) to male, Sprague Dawley rats (n = 1) via injection into a surgically-implanted jugular vein catheter. At 15 min post dosing, blood sample was collected into chilled, K2EDTA anticoagulant-fortified tube and immediately placed on wet ice. The blood sample was then centrifuged (1700 rcf, 5 minutes, 4 °C) to obtain plasma sample. At the same post-administration time point, whole brain sample was obtained by rapid dissection, rinsed with PBS, and immediately frozen in individual tissue collection box (dry ice). All brain and plasma samples were stored at -80 °C until […]
Sample Analysis: Concentrations in plasma and brain homogenates were quantified by liquid chromatography tandem mass spectrometry (LC-MS/MS). Whole brains were homogenized in 3 mL of 70:30 IPA:water in a mini bead beater for 3 min, and centrifuged at 3,500 g for 5 min. 5 uL of the supernatant was diluted in 15 uL of blank plasma for quantification of the analytes. Plasma samples were centrifuged at 3,500 g for 5 min. A standard curve was generated by diluting the analytes DMSO stocks with blank plasma to obtain a final concentration of 10,000 ng/ml followed by a serial dilution down to 0.5 ng/ml. Quality controls were generated by a serial dilution of the 5,000 ng/ml standard curve solution in blank plasma to obtain 3 concentrations of 500, 50, and 5 ng/ml. 20 uL of brain diluted in plasma, plasma, blank plasma, standard curve and QC samples were loaded in a V-bottom 96-well plate. 120 uL of acetonitrile containing 0.05 uM carbamazepine (internal standard) was added to each well and the plate was centrifuged at 3,500 g for 5 min. 60 uL of the supernatant of each well (protein free) was transferred to a new 96-well plate containing 60 uL of water. The plates were sealed for analysis by LC-MS/MS.
Plasma and brain tissue samples originating from in vivo studies were analyzed by electrospray ionization using an AB Sciex Q-TRAP 5500 (Foster City, CA) that was coupled to a Shimadzu LC-20AD pump (Columbia, MD) and a Leap Technologies CTC PAL auto-sampler (Carrboro, NC). Analytes were separated by gradient elution using a C18 column (3 x 50 mm, 3 mm; Fortis Technologies Ltd, Cheshire, UK) that was thermostated at 40 °C. HPLC mobile phase A was 0.1% formic acid in water (pH unadjusted); mobile phase B was 0.1% formic acid in acetonitrile (pH […]
min, with an isocratic hold for 0.5 min, before transitioning to 10% B over 0.05 min. The column was re-equilibrated (1 min) before the next sample injection. The total run time was 2.55 min, and the HPLC flow rate was 0.5 ml/min. The source temperature was set at 500 °C, and mass spectral analyses were performed using a Turbo-Ion spray source in positive ionization mode (5.0-kV spray voltage) and using multiple-reaction monitoring of transitions specific for the analytes. All data were analyzed using AB Sciex Analyst 1.5.1 software.
Brain plasma concentration ratio (Kp) was calculated by dividing brain concentration by plasma concentration for each animal. Unbound brain to unbound plasma concentration ratio (Kp,uu) is calculated using the following formula: Kp,uu = (Brain ng/g x brain fu)/(plasma ng/ml x plasma fu).
In-vitro determination of blood-brain barrier penetration potential
Blood-brain barrier penetration was determined using MDR1-MDCK cell monolayers by Absorption Systems, following their protocol. In short, compounds were incubated at […] final concentration on one side of the cell monolayer for 2 hours. […]

The target of data set [14] is T1, human TREK-1 (hTREK-1) (Homo sapiens, UniProt O95069).
T1 construct: expressed in transfected cells
T1 sequence (O95069 1-426): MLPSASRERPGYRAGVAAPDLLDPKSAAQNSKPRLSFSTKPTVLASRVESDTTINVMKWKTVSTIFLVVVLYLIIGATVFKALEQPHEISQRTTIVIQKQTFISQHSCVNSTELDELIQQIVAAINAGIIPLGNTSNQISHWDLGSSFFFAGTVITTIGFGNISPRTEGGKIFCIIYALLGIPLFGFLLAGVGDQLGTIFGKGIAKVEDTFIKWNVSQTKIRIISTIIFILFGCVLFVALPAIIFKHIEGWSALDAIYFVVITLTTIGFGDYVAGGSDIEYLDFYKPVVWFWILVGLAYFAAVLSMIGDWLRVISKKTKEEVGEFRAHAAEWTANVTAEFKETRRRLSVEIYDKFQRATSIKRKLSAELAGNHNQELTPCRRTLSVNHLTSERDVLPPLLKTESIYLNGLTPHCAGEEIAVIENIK
Description: TREK-1 thallium flux assay (CHO-K1 cells stably expressing hTREK-1). It counts as cell-based. Conditions: human TREK-1, thallium flux; read-out: h TREK-1 Tl+ IC50. The method, boiled down:
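Cells loaded with FluxOR dye were preincubated 10 min with test compound in 0.3% DMSO, then given thallium stimulus buffer. ΔRatio was fluorescence 25 s after thallium over pre-thallium baseline; % inhibition was normalised between vehicle and 10 μM reference blocker, and IC50 was fitted from concentration–response.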

A value given as a limit tells only on which side of the number the result lay.

Turning to `Cc1cc(C#Cc2ccc(F)cc2)cnc1NC(=O)c1cc(NC(=O)OC(C)(C)C)ccc1Cl` [Compound 5], in data set [1], the “brain homogenate binding mouse” value is 99.4%. The “brain homogenate binding rat” value in [2] was greater than 99.9%. In data set [3], the “MED, MK-801 mouse NOR” value is 10 mg/kg. The ChromatoLogD in [4] is 5.16. Moreover, the aqueous solubility in [5] is less than 5 µM.

Take `CC(=O)N1CC(F)(Cn2ncc(Cl)c2C(=O)Nc2ncc(C#Cc3ccccc3)cc2C)C1` [Compound 15e, 1-((1-Acetyl-3-fluoroazetidin-3-yl)methyl)-4-chloro-N-(3-methyl-5-(phenylethynyl)pyridin-2-yl)-1H-pyrazole-5-carboxamide]: the fraction unbound at 6 h, 5 µM was 0.039 in [6] and 0.022 in [7]. The CLint scaled at 1 µM in [8] was 16 mL/min/kg; in data set [9] it was 72 mL/min/kg. Also, in [10], the CLint scaled is 340 mL/min/kg.

On to `CC(=O)N[C@H]1CC[C@@H](n2ncc(Cl)c2C(=O)Nc2ncc(C#Cc3ccccc3)cc2C)CC1` [Compound 15f, 1-(cis-4-Acetamidocyclohexyl)-4-chloro-N-(3-methyl-5-(phenylethynyl)pyridin-2-yl)-1H-pyrazole-5-carboxamide], for which the results for the fraction unbound at 6 h, 5 µM in [6], in data set [7] and in [12] were 0.012, 0.008 and 0.016, respectively. For the same molecule, the clearance in data set [11] worked out at 27.8 mL/min/kg. Also, the Kp at 15 min in data set [13] is 0.97. Besides, the IC50 in [14] is 130 nM.

The values are drawn from PMC12621189, “Optimization of Selective and CNS Penetrant Alkyne-Based TREK Inhibitors: The Discovery and Characterization of ONO-9517601 (VU6022856) and ONO-7927846 (VU6024391)” (Journal of Medicinal Chemistry, 2025).
